{
  "source": "patent US20060167098A1",
  "about": "“Method for the treatment of diseases linked to an accumulation of triglycerides and cholesterol” (Institut National De La Sante ET De LA Recherche Medicale …, priority 2003, published 2006)",
  "format_in_all_cases": "in vivo",
  "key": {"[1]": {"assay": "Plasma glucose, insulin and adiponectin in very young ob/ob mice (5-6 weeks old), 6 weeks", "description": "Plasma glucose was measured on an automatic analyser (Synchron LX20 from Beckman Coulter) with a commercial kit (kit n°472500 from Beckman).\nPlasma insulin, adiponectin and leptin were measured by radioimmunoassay (RIA). Insulin was measured with the Insulin-CT kit from Cis Bio International (Gif-sur-Yvette, France), whereas plasma leptin and adiponectin were assessed with kits from Linco Research Inc. (St Charles, Mo.). Leptin was not measured in ob/ob mice since these animals are genetically leptin-deficient (Friedman J. M., Halaas J. L., 1998, Nature 395: 763-770). Results regarding insulin were expressed as recommended by kit manufacturer.\nIn another experiment, very young ob/ob mice (5-6 weeks old) were treated with 100 mg/kg/d of β-aminoisobutyric acid for 6 weeks and fasted for the last 48 hours. Although plasma glucose was not decreased in treated mice, there was a clear trend toward lower insulin and higher adiponectin. Indeed, plasma insulin was 56±9 and 37±5 μU/ml (p=0.08), respectively in control mice (n=7) and mice treated with β-aminoisobutyric acid (n=7). Plasma adiponectin was 8.0±1.1 and 10.9±1.2 μg/ml (p=0.08), respectively in control mice (n=7) and mice treated with β-aminoisobutyric acid (n=7)."}, "[2]": {"assay": "Plasma lipids in Swiss mice fed with a western diet, 6 weeks, 48-hour fast", "conditions": "100 mg/kg/day", "description": "(§1) Plasma lipids (triglycerides, total cholesterol, phospholipids) were measured on an automatic analyser (Hitachi 717®). The commercial kits used to assess triglycerides, total cholesterol and phospholipids on this analyser were all from bioMérieux (references 61238, 61219 and 61491, respectively). Plasma non esterified fatty acids (NEFA) were assessed by using a commercial kit (Wako, reference 994-75409). Hepatic and plasma lipids were performed at the end of six weeks of treatment in animals that have been fasted for 48 hours. Triglycerides and HDL-cholesterol were also assessed after 2 months (in the fed state) or after 4 months of treatment (after an overnight fast).\nPlasma lipids were assessed in mice fed with the western diet (WD) and receiving or not of 100 mg/kg/day of β-aminoisobutyric acid (BAIBA) in the drinking water (8 mice in each group). For comparison, the experiment also included a group of mice (n=8) fed with a standard diet (SD). These animals were those used for the determination of body fat by DEXA and liver lipids (see above, paragraph I-c and II-a, respectively). After the last DEXA measurement (after 6 weeks of treatment), mice were allowed to recover from the anaesthesia for ca. 2 days and were then submitted to a 48-hour period of fast. At the end of this fasting period, a sample of blood was collected (from the retroorbital sinus) […] and plasma triglycerides, phospholipids, total cholesterol and non-esterified fatty acids (NEFA) were subsequently determined. After 6 weeks, the western diet was responsible for an increase of all plasma lipids, but the most affected lipids were triglycerides."}, "[3]": {"assay": "Liver histology, liver triglycerides and ALT in ob/ob mice treated for 4 months, not fasted", "conditions": "for plasma alanine aminotransferase (ALT): after 4 months", "description": "Total lipids and triglycerides in the liver of animals were assessed according to a procedure partially reported by (Letteron P., Fromenty B., Terris B., Degott C., Pessayre D., 1996, J. Hepatol. 24 : 200-208). Briefly, after killing of the animals, livers were removed and homogenized in sterile water. Hepatic lipids were thus extracted by a mixture of chloroform and methanol (2/1; v/v). After removal of the aqueous phase, the organic phase (chloroform containing the lipids) was evaporated and the amount of lipids was determined by gravimetry. Lipids were subsequently resuspended in isopropanol (final concentration, ca. 10 mg/mL). After removal of the phopholipids by using aluminum hydroxide hydrate, triglycerides were determined colorimetrically by using periodate and the Nash's reagent (containing acetylacetone, ammonium acetate and isopropanol). The reaction generates diacetyldihydrolutidine which is assayed by spectrophotometry (λ=410 nm).\n(§2) Plasma HDL-cholesterol and alanine aminotransferase (ALT) were measured on an automatic analyser (Olympus AU400®) with commercial kits (Olympus Diagnostica GmbH, references OSR6187 and OSR6107, respectively).\nFinally, liver histology was performed according to regular procedure. Steatosis and fibrosis were assessed thanks to the Oil red O and Masson's trichrome stains, respectively, whereas necrosis and inflammation were determined thanks to the HPS (Hematoxylin-Phloxin-Saffron) stain, or the HE (Hematoxylin-Eosin) stain. In one experiment, perisinusoidal fibrosis was assessed with the Sirius Red stain.\nIn a second series of investigations, liver histology was studied in ob/ob mice treated for 4 months with β-aminoisobutyric acid, administered either at the usual dose (100 mg/kg/day) or at a higher dose (500 mg/kg/day). In this experiment, liver examination was performed in mice not submitted to a fasting period before sacrifice. The number of investigated animals were 6, 7 and 8, respectively in the control group and in the groups treated with 100 and 500 mg/kg/day of β-aminoisobutyric acid."}, "[4]": {"assay": "Plasma lipids in ob/ob mice, 6 weeks, 15 hours overnight fast", "conditions": "100 mg/kg/day 6 weeks, fasted 15 hours", "description": "as §1, §2\nIn a second series of experiments, plasma lipids were assessed in ob/ob mice fed with a standard diet and receiving or not of 100 mg/kg/day of β-aminoisobutyric acid (BAIBA) in the drinking water during 6 weeks, but at the end of the experiment mice were fasted for only 15 hours (i.e. for an overnight fast). Samples of blood were then collected in controls mice (n=4) and in mice treated with BAIBA (n=5) for the assessment of plasma triglycerides, total cholesterol and HDL-cholesterol. In this experiment, BAIBA decreased plasma triglycerides and total cholesterol by 10 and 8%, respectively. Indeed, plasma triglycerides were 1.35±0.07 and 1.22±0.06 mmol/L, respectively in control and treated ob/ob mice, whereas plasma total cholesterol was 6.78±0.51 and 6.24±0.11 mmol/L, respectively in control and treated mice. […] Indeed, HDL-cholesterol was 4.73±0.31 and 4.92±0.24 mmol/L, respectively in control and treated mice."}, "[5]": {"conditions": "100 mg/kg/d 6 weeks, very young ob/ob, fasted 48 hours, p=0.08"}},
  "data": [
    {"molecule": "CC(CN)C(=O)O", "note": "(racemic) [BAIBA, D,L-β-Aminoisobutyric acid]", "values": [
      {"measurement": "plasma glucose vs control", "setting": "[1]; 100 mg/kg/d 6 weeks, very young ob/ob, fasted 48 hours", "value": "not decreased"},
      {"measurement": "plasma adiponectin", "setting": "[1]; [5]", "value": "10.9 ± 1.2", "unit": "µg/mL"},
      {"measurement": "plasma insulin", "setting": "[1]; [5]", "value": "37±5", "unit": "μU/ml"},
      {"measurement": "increase of plasma level of adiponectin", "setting": "[1]; obese mice", "value": "around 35%"},
      {"measurement": "decrease of plasma NEFA", "setting": "[2]", "value": 16, "unit": "%"},
      {"measurement": "decrease of total cholesterol", "setting": "[2]", "value": 4, "unit": "%"},
      {"measurement": "plasma NEFA", "setting": "[2]", "value": "0.88 ± 0.06", "unit": "mmol/L"},
      {"measurement": "plasma total cholesterol", "setting": "[2]", "value": "6.71 ± 0.27", "unit": "mmol/L"},
      {"measurement": "plasma triglycerides", "setting": "[2]", "value": "1.54 ± 0.13", "unit": "mmol/L"},
      {"measurement": "reduction of plasma triglycerides", "setting": "[2]; not significant", "value": 22, "unit": "%"},
      {"measurement": "liver triglycerides", "setting": "[3]; 100 mg/kg/day, 4 months", "value": "721±16 mg/g of lipids"},
      {"measurement": "mice with inflammation", "setting": "[3]; 100 mg/kg/day, 4 months", "value": 43, "unit": "%"},
      {"measurement": "mice with necrosis", "setting": "[3]; 100 mg/kg/day, 4 months", "value": 43, "unit": "%"},
      {"measurement": "mice with perisinusoidal fibrosis", "setting": "[3]; 100 mg/kg/day, 4 months", "value": 29, "unit": "%"},
      {"measurement": "mice with portal or perivenular fibrosis", "setting": "[3]; 100 mg/kg/day, 4 months", "value": 29, "unit": "%"},
      {"measurement": "plasma alanine aminotransferase (ALT)", "setting": "[3]; 100 mg/kg/day", "value": "290±61", "unit": "U/L"},
      {"measurement": "liver triglycerides", "setting": "[3]; 500 mg/kg/day, 4 months", "value": "707±29 mg/g of lipids"},
      {"measurement": "plasma alanine aminotransferase (ALT)", "setting": "[3]; 500 mg/kg/day", "value": "258±27", "unit": "U/L"},
      {"measurement": "extent of steatosis vs control", "setting": "[3]; 100 and 500 mg/kg/day, 4 months, not fasted", "value": "about the same extent"},
      {"measurement": "HDL-cholesterol", "setting": "[4]", "value": "4.92 ± 0.24", "unit": "mmol/L"},
      {"measurement": "decrease of plasma total cholesterol", "setting": "[4]", "value": 8, "unit": "%"},
      {"measurement": "decrease of plasma triglycerides", "setting": "[4]", "value": 10, "unit": "%"},
      {"measurement": "plasma total cholesterol", "setting": "[4]", "value": "6.24 ± 0.11", "unit": "mmol/L"},
      {"measurement": "plasma triglycerides", "setting": "[4]", "value": "1.22 ± 0.06", "unit": "mmol/L"}
    ]}
  ]
}
